In patent publication EP2140864A2 (H. Lundbeck A/S, priority 2001, dated 2002):
Where two headings read alike, the source gives them in different places. Marks after values point to notes of the source that are not given here.

Experiments:
human GAL1 receptor = target: T1, human GAL1 receptor (Homo sapiens, UniProt P47211); assay: Radioligand binding at cloned human GAL1 receptor
T1 construct: expressed in transfected cells
T1 sequence (P47211 1-349): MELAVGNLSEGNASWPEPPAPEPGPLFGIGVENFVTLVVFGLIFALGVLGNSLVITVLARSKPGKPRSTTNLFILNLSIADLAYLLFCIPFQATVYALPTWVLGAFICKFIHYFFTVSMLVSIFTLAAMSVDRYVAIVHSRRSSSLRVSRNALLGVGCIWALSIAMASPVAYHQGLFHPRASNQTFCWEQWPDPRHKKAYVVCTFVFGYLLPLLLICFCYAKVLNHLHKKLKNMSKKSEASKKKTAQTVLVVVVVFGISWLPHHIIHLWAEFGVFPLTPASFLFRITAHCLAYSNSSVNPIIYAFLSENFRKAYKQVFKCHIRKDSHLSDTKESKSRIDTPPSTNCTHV
Protocol: The binding properties of the pyrimidines of the present invention were evaluated at the cloned human galanin receptors, GAL1, GAL2, and GAL3, using protocols described herein. […]
LM(tk-) cells were stably transfected with the human GAL1 or GAL3 receptor. CHO cells were stably transfected with the human GAL2 receptor.
cDNAs for the human and rat GAL1, and human and rat GAL3 receptors were transfected with a G-418 resistant gene into the mouse fibroblast LM(tk-) cell line by a calcium phosphate transfection method (Cullen, 1987). Stably transfected cells were selected with G-418. Human and rat GAL2 receptors were similarly transfected into CHO cells.
Membranes were harvested from stably transfected LM(tk-) cells. Adherent cells were washed twice in ice-cold phosphate buffered saline (138 mM NaCl, 8.1 mM Na2HPO4, 2.5 mM KCl, 1.2 mM KH2PO4, 0.9 mM CaCl2, 0.5 mM MgCl2, pH 7.4) and lysed by sonication in ice-cold sonication buffer (20 mM Tris-HCl, 5 mM EDTA, pH 7.7). Large particles and debris were cleared by low speed centrifugation (200 x g, 5 min, 4°C). Membranes were collected from the supernatant fraction by centrifugation (32,000 x g, 18 min, 4°C), washed with ice-cold hypotonic buffer, and collected again by centrifugation (32,000 x g, 18 min, 4°C). The final membrane pellet was resuspended by sonication into a small volume of ice-cold binding buffer (-1 ml for every 5 plates: 10 mM NaCl, 20 mM HEPES, 0.22 mM KH2PO4, 1.26 mM CaCl2, 0.81 mM MgSO4, pH 7.4). Protein concentration was measured by the Bradford method (Bradford, 1976) using Bio-Rad Reagent, with bovine serum albumin as a standard. Membranes were held on ice for up to one hour and used fresh, or flash frozen and stored in liquid nitrogen. Membranes were prepared similarly from CHO cells.
Galanin Recentors: Binding assays were performed according to the following published methods: human GAL3 (PCT International Publication No. WO 98/15570), human GAL1 (PCT International Publication No. WO 95/2260), human GAL2 (PCT International Publication No. WO 97/26853).
(§1) Binding data were analyzed using nonlinear regression and statistical techniques available in the GraphPAD Prism package (San Diego, CA). Enzymatic assay data were derived from a standard curve of reference compound data.

NE transporter [1] = target: NE transporter (Rattus norvegicus, UniProt Q63380); assay: Binding at native NE transporter; conditions: Table 7; native transporter, head prints r (rat); read-out: rNE Uptk Ki
Protocol: (§2) The binding properties of the compounds of the present invention were evaluated at one or more cloned receptors or native, tissue-derived transporters, using protocols described below.
(§3) The methods to determine binding affinity at native transporters are described in the following publications: 5HT transporter and NE transporter (Owens et al., 1997), and DA transporter (Javitch et al, 1984).
as §1

NE transporter [2] = assay: Binding at native NE transporter; conditions: Table 8; Ki rNE Uptk divided by Ki hGAL3
Protocol: as §2, §3, §1

Male Sprague-Dawley rats = assay: Rat Forced Swim Test (FST); format: in vivo; conditions: for antidepressant profile in the FST (conclusion): overall conclusion of the study
Protocol: The procedure used in this study was similar to that previously described (Porsolt, et al., 1978), except the water depth (30 cm in this procedure). The greater depth in this test prevented the rats from supporting themselves by touching the bottom of the cylinder with their feet. Swim sessions were conducted by placing rats in individual plexiglass cylinders (46 cm tall x 20 cm in diameter) containing 23-25°C water 30 cm deep (Porsolt, et al. used a depth of only 15 cm; also, see Detke, et al., 1995). Two swim tests were conducted always between 1200 and 1800 hours: an initial 15-min pretest followed 24 h later by a 5-minute test. […] All other test sessions were conducted between 1300 to 1700 hours. Following all swim sessions, rats were removed from the cylinders, dried with paper towels and placed in a heated cage for 15 minutes and returned to their home cages. All test sessions were videotaped using a Panasonic color video camera and recorder for scoring later.
Male Sprague-Dawley rats (Taconic Farms, NY) were used in all experiments. Rats were housed in pairs and maintained on a 12:12-h light-dark cycle. Rats were handled for 5 minutes each day for 5 days prior to behavioral testing.
The rat's behavior was rated at 5 second intervals during the 5 minute test as one of the following: • 1. Immobility- rat remained floating in the water without struggling and was only making those movements necessary to keep its head above water; • 2. Climbing - rat was making active movements with its forepaws in and out of the water, usually directed against the walls; • 3. Swimming - rat was making active swimming motions, more than necessary to merely maintain its head above water, e.g. moving around in the cylinder; and • 4. Diving - entire body of the rat was submerged.
All of the behavior scoring was done by a single rater, who was blind to the treatment condition. The rater was also present in the room throughout the entire test period.
All injections were given using 1 cc tuberculin syringe with 26 3/8 gauge needles (Becton-Dickinson, VWR Scientific, Bridgeport, NJ). The volume of injection was 1 ml/kg.
The drugs were dissolved in 100% N,N-dimethylacetamide. All administrations were given using 1 cc tuberculin syringes, to which a 3 inch, curved, stainless steel gavage needle was attached. The volume of administration was 1 ml/kg.
The compounds were dissolved in 100% N,N-dimethylacetamide. All administrations were given using 1 cc tuberculin syringes, to which a 3 inch, curved, stainless steel gavage needle was attached. The volume of administration was 1 ml/kg.
The forced swim test data (immobility, swimming, climbing, diving) were subjected to a randomized, one-way ANOVA and post hoc tests conducted using the Student-Newman-heuls test. The data were analyzed using the GBSTAT program, version 6.5 (Dynamics Microsystems, Inc., Silver Spring, MD, 1997). All data are presented as means ± S.E.M.

[3] = pyrimidines, read-out: Ki GalR1
[4] = 3 mg/kg p.o., single administration, 1 hr. before test
[5] = 10 mg/kg p.o., single administration, 1 hr. before test
[6] = 30 mg/kg p.o., single administration, 1 hr. before test
[7] = 30 mg/kg i.p., single injection, 5 minute test
[8] = 0.3 mg/kg p.o., single administration, 1 hr. before test
[9] = 1 mg/kg p.o., single administration, 1 hr. before test

Chain of NE transporter (Rattus norvegicus, UniProt Q63380) (Q63380 1-617): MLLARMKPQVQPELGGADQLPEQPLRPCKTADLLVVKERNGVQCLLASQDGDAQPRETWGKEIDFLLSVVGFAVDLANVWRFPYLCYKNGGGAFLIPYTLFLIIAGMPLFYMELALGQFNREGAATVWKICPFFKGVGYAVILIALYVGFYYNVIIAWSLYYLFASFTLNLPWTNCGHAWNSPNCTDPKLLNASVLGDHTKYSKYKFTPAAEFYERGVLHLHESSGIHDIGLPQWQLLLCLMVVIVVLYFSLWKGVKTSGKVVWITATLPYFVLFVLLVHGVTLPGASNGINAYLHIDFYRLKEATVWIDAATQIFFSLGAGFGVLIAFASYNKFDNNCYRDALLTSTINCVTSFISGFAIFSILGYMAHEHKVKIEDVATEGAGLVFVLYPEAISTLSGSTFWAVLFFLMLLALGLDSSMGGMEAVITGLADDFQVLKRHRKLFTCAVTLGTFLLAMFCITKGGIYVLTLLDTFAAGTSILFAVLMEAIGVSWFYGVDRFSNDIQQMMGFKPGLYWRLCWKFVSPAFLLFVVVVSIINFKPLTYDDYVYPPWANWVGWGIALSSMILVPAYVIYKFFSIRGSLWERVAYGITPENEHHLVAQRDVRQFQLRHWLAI

Row | SMILES | Ki (human GAL1 receptor; indolones, read-out: Ki GalR1) [µM] | Ki (NE transporter [1]) [µM] | selectivity ratio rNE Uptk (NE transporter [2]) | Ki (human GAL1 receptor; [3]) [µM] | Climbing (Male Sprague-Dawley rats; [4]) | Diving (Male Sprague-Dawley rats; [4]) | Immobility (Male Sprague-Dawley rats; [4]) | Swimming (Male Sprague-Dawley rats; [4]) | Climbing (Male Sprague-Dawley rats; [5]) | Diving (Male Sprague-Dawley rats; [5]) | Immobility (Male Sprague-Dawley rats; [5]) | Swimming (Male Sprague-Dawley rats; [5]) | Climbing (Male Sprague-Dawley rats; [6]) | Diving (Male Sprague-Dawley rats; [6]) | Immobility (Male Sprague-Dawley rats; [6]) | Swimming (Male Sprague-Dawley rats; [6]) | antidepressant profile in the FST (conclusion) (Male Sprague-Dawley rats) | other results
1 | O=C1C(=Nc2cccc(Cl)c2)c2ccccc2N1c1ccccc1 [Example 94, 3-[(3-CHLOROPHENYL)IMINO]-1-PHENYL-1,3-DIHYDRO-2H-INDOL-2-ONE] | > 10 | 4.88 | >30 |  |  |  |  |  |  |  |  |  |  |  |  |  |  | 
2 | COc1cccc(Nc2cc(N3CCCCC3)nc(N(C)CCc3c[nH]c4ccccc34)n2)c1 [Example 17] |  | 18.3 | >100 |  |  |  |  |  |  |  |  |  |  |  |  |  |  | 
3 | Cc1ccc(Nc2cc(N3CCCCC3)nc(N(C)CCc3ccccc3)n2)cc1 [Example 22] |  | 13.1 | >100 | 0.442 | 2.0 ± 0.6 | 0.4 ± 0.4 | 50 ± 0.9 | 7.6 ± 0.5 | 2.9 ± 0.5 | 0.4 ± 0.3 | 41 ± 1.3^c | 15.3 ± 0.8^g | 5.2 ± 1.0^a | 0.0 ± 0.0 | 31 ± 2.8^b | 23.2 ± 2.0^f | has antidepressant properties | 
4 | O=C1C(=Nc2ccc(Br)cc2)c2ccccc2N1c1ccccc1 [Example 98, 3-[(4-BROMOPHENYL)IMINO]-1-PHENYL-1,3-DIHYDRO-2H-INDOL-2-ONE] | > 10 | 5.5 | >100 |  | 4.3 ± 0.9^b | 0.1 ± 0.1 | 35 ± 2.6^a | 20.4 ± 1.9^c | 2.4 ± 0.3 | 0.8 ± 0.4 | 39 ± 1.1^a | 17.6 ± 1.0^c | 2.0 ± 0.3 | 0.2 ± 0.2 | 38 ± 2.3^a | 20.3 ± 2.1^c | resembling that of the clinically established antidepressant fluoxetine | 
5 | COC[C@@H]1[C@@H](c2ccccc2)OCCN1c1nc(Nc2ccc(C)cc2)cc(N2CCCCC2)n1 [Example 49] |  |  |  |  | 3.0 ± 0.7 | 1.0 ± 0.7 | 43 ± 1.9 | 13.1 ± 1.4 | 2.4 ± 0.7 | 0.0 ± 0.0 | 48 ± 1.7 | 10.0 ± 1.0 | 2.3 ± 0.4 | 0.4 ± 0.4 | 41 ± 2.0^a | 16.7 ± 1.3^d |  | Ki (human GAL1 receptor; read-out: Ki GalR1, pyrimidines): > 5 µM
6 | CN(C)c1cc(Nc2ccc(Cl)c(Cl)c2)nc(Nc2ccccc2)n1 [Example 60] |  | 46.1 | >100 | > 5 |  |  |  |  |  |  |  |  |  |  |  |  |  | 
7 | O=C1C(=Nc2cc(Cl)cc(Cl)c2)c2ccccc2N1c1ccccc1 [Example 103, 3-[(3,5-DICHLOROPHENYL)IMINO]-1-PHENYL-1,3-DIHYDRO-2H-INDOL-2-ONE] | > 10 |  |  |  | 2.8 ± 0.6 | 0.5 ± 0.4 | 44 ± 2.7 |  | 3.5 ± 0.6 | 0.4 ± 0.2 | 42 ± 2.2 | 14.3 ± 1.6 | 4.8 ± 0.7 | 1.1 ± 0.5 | 32 ± 1.8^a | 22.7 ± 1.1^c | has antidepressant properties | 
8 | O=C1C(=Nc2cccc(C(F)(F)F)c2)c2ccccc2N1c1ccccc1 [Example 92, 1-PHENYL-3- [[3-(TRIFLUOROMETHYL)PHENYL]IMINO]-1,3-DIHYDRO-2H-INDOL-2-ONE] |  |  |  |  |  |  |  |  |  |  |  |  |  |  |  |  |  | Climbing (Male Sprague-Dawley rats; 1 mg/kg i.p., single injection, 5 minute test): 11.7 ± 1.1 counts; Climbing (Male Sprague-Dawley rats; 3 mg/kg i.p., single injection, 5 minute test): 14.6 ± 1.5 counts; Climbing (Male Sprague-Dawley rats; [7]): 8.6 ± 1.7 counts; Immobility (Male Sprague-Dawley rats; [7]): 25 ± 3.5 counts
9 | Cc1ccc(Nc2cc(N3CCCCC3)nc(N3CCN(c4ncccc4C(F)(F)F)CC3)n2)cc1 [Example 34] |  |  | >100 | 0.912 | 4.3 ± 0.8 | 0.3 ± 0.3 | 35 ± 2.0^b | 20.8 ± 1.3^d,e | 2.0 ± 0.4 | 0.4 ± 0.3 | 49 ± 1.4 | 8.2 ± 1.2 |  |  |  |  | resembles that of antidepressants | Climbing (Male Sprague-Dawley rats; [8]): 3.3 ± 0.7; Diving (Male Sprague-Dawley rats; [8]): 0.2 ± 0.1; Immobility (Male Sprague-Dawley rats; [8]): 45 ± 1.5^a; Swimming (Male Sprague-Dawley rats; [8]): 11.6 ± 0.9^d; Climbing (Male Sprague-Dawley rats; [9]): 5.0 ± 0.8^c; Diving (Male Sprague-Dawley rats; [9]): 0.3 ± 0.2; Immobility (Male Sprague-Dawley rats; [9]): 35 ± 1.9^b; Swimming (Male Sprague-Dawley rats; [9]): 19.6 ± 1.3^d,e
10 | CN(CCc1c[nH]c2ccccc12)c1nc(Nc2ccc(F)c(F)c2)cc(N2CCCCC2)n1 [Example 15] |  |  | >100 | 2.43 |  |  |  |  |  |  |  |  |  |  |  |  |  | 
11 | Cc1ccc(Nc2cc(N(C)C)nc(N(C)CCc3c[nH]c4ccccc34)n2)cc1 [Example 77] |  | 28.1 | >100 | 3.8 |  |  |  |  |  |  |  |  |  |  |  |  |  | 
12 | O=C1C(=Nc2ccc(Cl)cc2)c2ccccc2N1c1ccccc1 [Example 97, 3-[(4-CHLOROPHENYL)IMINO]-1-PHENYL-1,3-DIHYDRO-2H-INDOL-2-ONE] | > 10 | 4.41 | >30 |  |  |  |  |  |  |  |  |  |  |  |  |  |  | 
13 | Cc1ccc(Nc2cc(N3CCCCC3)nc(N(C)CCc3c[nH]c4ccccc34)n2)cc1 [Example 11] |  |  | >100 |  |  |  |  |  |  |  |  |  |  |  |  |  |  | 
